Assay results as given in patent US4882339A, “4-Amino-substituted 1,2-dihydroxynaphthalene derivatives useful in inhibiting 5-lipoxygenase activity in mammals” (Ciba-Geigy Corporation, priority 1987, dated 1989).
Where two headings read alike, the source gives them in different places.

Experiments:
[1] = test system: rat pleurisy model of inflammation; experiment: Carrageenin-induced pleurisy model of inflammation in the rat; format: in vivo; conditions: 30 mg/kg p.o. b.i.d. for two days; 48 hours after carrageenin
5-lipoxygenase [2] = experiment: Ex vivo inhibition of 5-lipoxygenase (A-23187-stimulated LTB4 formation in whole blood), dog
Procedure: (§1) Furthermore the inhibition of 5-lipoxygenase in vivo is determined after oral or i.v. administration to rats or dogs by measuring ex vivo in whole blood the inhibition of A-23187-stimulated LTB4 formation as compared to non-treated control animals.

5-lipoxygenase [3] = target: T1, 5-lipoxygenase (Cavia porcellus, UniProt A0A286X958); experiment: Inhibition of the synthesis of 5-HETE and LTB4 in A-23187-stimulated guinea pig polymorphonuclear leukocytes; format: cell-based; conditions: for IC50: in vitro
T1 construct: A-23187-stimulated guinea pig polymorphonuclear leukocytes; endogenous in cells; host or cells: guinea pig polymorphonuclear leukocytes
T1 sequence (A0A286X958 1-674): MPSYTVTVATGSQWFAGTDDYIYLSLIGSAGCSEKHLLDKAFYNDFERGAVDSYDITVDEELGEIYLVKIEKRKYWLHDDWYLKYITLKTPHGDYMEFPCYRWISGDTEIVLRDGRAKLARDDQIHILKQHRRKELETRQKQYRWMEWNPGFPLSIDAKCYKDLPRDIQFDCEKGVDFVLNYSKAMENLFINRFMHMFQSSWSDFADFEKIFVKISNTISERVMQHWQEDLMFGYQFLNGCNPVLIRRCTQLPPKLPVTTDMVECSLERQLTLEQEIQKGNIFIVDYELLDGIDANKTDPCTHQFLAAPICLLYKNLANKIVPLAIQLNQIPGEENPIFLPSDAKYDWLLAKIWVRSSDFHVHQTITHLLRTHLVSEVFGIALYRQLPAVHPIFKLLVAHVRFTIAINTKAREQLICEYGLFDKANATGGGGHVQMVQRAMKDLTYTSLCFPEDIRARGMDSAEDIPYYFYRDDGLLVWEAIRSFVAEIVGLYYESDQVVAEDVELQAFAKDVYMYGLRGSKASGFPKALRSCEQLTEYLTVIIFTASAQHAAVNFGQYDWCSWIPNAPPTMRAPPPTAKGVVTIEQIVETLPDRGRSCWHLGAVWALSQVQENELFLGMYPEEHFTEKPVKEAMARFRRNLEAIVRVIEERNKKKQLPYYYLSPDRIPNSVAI
Procedure: 5-Lipoxygenase inhibition is determined e.g. by measuring the percent inhibition of the synthesis of 5-HETE [(5S)-5-hydroxy-6,8,11,14-eicosa-tetraenoic acid] and leukotriene B4 (LTB4, 5,12-dihydroxy-6,8,10,14-eicosatetraenoic acid) in A-23187-stimulated guinea pig polymorphonuclear leukocytes, essentially according to radiometric thin-layer chromatogrpahic assays described by Walker and Dawson (J. Pharm. Pharmacol. 31: 778, 1979) and Jakschik and Lee (Nature 287: 51, 1980) used to measure the formation of 5-HETE and LTB4 -like products from ^14 C-arachidonic acid. IC50 values are determined graphically as the concentration of test compound at which the synthesis of 5-HETE and LTB4 -like products is reduced to 50% of their respective control values.

5-lipoxygenase [4] = experiment: Ex vivo inhibition of 5-lipoxygenase (A-23187-stimulated LTB4 formation in whole blood), rat; conditions: about 10-100 mg/kg p.o.
Procedure: as §1

[5] = In vivo metabolite identification after administration of 4-(N-methylcyclohexylamino)-1,2-diacetoxynaphthalene

**Q.** Which “cell count of monocytes” value [1] does the source give for `CC(=O)Oc1cc(N(C)C2CCCCC2)c2ccccc2c1OC(C)=O` [4-(N-methylcyclohexylamino)-1,2-diacetoxynaphthalene] here?
**A.** Its value is “lowers the cell count of polymorphonuclear leukocytes and of monocytes”.

**Q.** And the “cell count of polymorphonuclear leukocytes” value [1]?
**A.** Its value is “lowers the cell count of polymorphonuclear leukocytes”.

**Q.** What about the exudate volume [1] of the same compound?
**A.** The exudate volume was “causes inhibition of exudate volume”.

**Q.** What about the “inhibition of 5-lipoxygenase activity ex vivo” value (5-lipoxygenase [2]; 1 mg/kg i.v.) of the same compound?
**A.** The value was “inhibits 5-lipoxygenase activity”.

**Q.** And the “inhibition of 5-lipoxygenase activity ex vivo” value (5-lipoxygenase [2]; 100 mg/kg p.o.)?
**A.** Its value is “inhibits 5-lipoxygenase activity”.

**Q.** And the IC50 (5-lipoxygenase [3]; read-out: IC50 for LTB4 formation)?
**A.** Its IC50 is about 1 µM.

**Q.** And the “inhibition of the formation of 5-HETE and leukotriene B4” value (5-lipoxygenase [3]; result in words)?
**A.** The value was “inhibits the formation of 5-HETE [(5S)-5-hydroxy-6,8,11,14-eicosa-tetraenoic acid] and leukotriene B4”.

**Q.** And the “inhibition of 5-lipoxygenase activity ex vivo” value (5-lipoxygenase [4])?
**A.** The value was “inhibits 5-lipoxygenase activity”.

**Q.** For `CN(C1=CC(=O)C(=O)c2ccccc21)C1CCCCC1` [4-(N-methylcyclohexylamino)-1,2-naphthoquinone], which in vivo metabolite [5] is on record?
**A.** Its in vivo metabolite is “identified as an in vivo metabolite of 4-(N-methylcyclohexylamino)-1,2-diacetoxynaphthalene”.

**Q.** And the IC50 (5-lipoxygenase [3]; read-out: IC50 for inhibition of the formation of LTB4)?
**A.** The IC50 was about 0.5 µM.
